Results taken from US9211270B2, “Method for improving the efficacy of curcuminoids and their analogs” (ASAC Compañía de Biotecnología e Investigación, S.A., priority 2007, dated 2015).

Assays:
[1] = tested on: A431 cells (human epidermal carcinoma); test: Inhibition of tumor growth in mice, intraperitoneal Curcumin with visible light; assay type: in vivo, athymic nude mice (NMRI); conditions: day 12, Curcumin 50 mg/kg per day i.p. + visible light 5500 lx 20 minutes
Experimental: 5*10^6 A431 cells (human epidermal carcinoma) were injected subcutaneously into the left and right flanks of athymic nude mice (NMRI) (5-6 weeks old, 20-24 g). The mice were fed in pathogen-free conditions. The animals were fed ad libitum with sterilized food. The animals were sterilized with ketamine/xylazine.
The irradiation device was 10 Phillips TLK 40W/03 lamps (60 cm length*4 cm diameter), at a distance of 45 cm. The emission range of the lamps was between 400-550 nm with a maximum at 420 nm.
Tumor size was measured initially and after 10-12 days; afterwards tumor volumes and weights were determined twice a week. At the end of the experiment (29 days), the animals were anesthetized and sacrificed.

psoriasis = conditions: 12 week studies; cited from earlier work

## COc1cc(/C=C/C(=O)CC(=O)/C=C/c2ccc(O)c(OC)c2)ccc1O [Curcumin, curcumin (diferuloylmethane)]
[1]
  reduction of average tumor volume in comparison to control mice: 70%

## Efalizumab
psoriasis
  patients who reached a score of PASI-75: 22-35%
